Entries after “also recorded” stand apart in the source; their conditions may differ. Where two headings read alike, the source gives them in different places.

The subject of experiment [1] is Pa-LPS-induced lung injury. The format is in vivo, mice.
Experiment [2] has as its system chronic-CS induced lung inflammation and emphysema. Briefly: Chronic cigarette smoke (24 weeks) induced lung inflammation and emphysema in C57BL/6 mice. The format is in vivo. An excerpt: Scale: white/black bar-50 μm.
The test system of experiment [3] is neutral SMase. The note with it: at 5 mM GSH; cited from earlier work.
For experiment [4], the system named is ZO-2. The experiment is described as follows: Lipid-raft ZO-2 expression by Western blotting in CFBE41o- and CFBE41o-WT-CFTR cells. The format is cell-based, human. A general note: In western blotting, separated proteins are transferred to a membrane and probed.
Experiment [5] deals with NFκB promoter. The experiment is described as follows: NFκB luciferase reporter assay in CFBE41o-wt-CFTR and CFBE41o- cells. The format is cell-based, human. To be noted: CFBE41o-wt-CFTR cells; 10 ng/ml TNFα, 50 μM FB1, 12 hours; p<0.05; only in the presence of cell surface CFTR. An excerpt: The BALF and cell culture supernatants (n=3-5) were quantified in triplicate for mouse IL-6, IL-1β, or human IL-8 using ELISA kits (R&D Systems, or eBioscience, San Diego, Calif.) following the manufacturer's instructions. MPO levels in neutrophil culture supernatant or mouse BALF were similarly quantified using the MPO ELISA kit (Hycult Biotechnology, Uden, The Netherlands). For reporter assays, CFBE41o-WT-CFTR or CFBE41o-cells were transfected with NF-KB firefly luciferase promoter (pGL2) and renilla luciferase (pRLTK) control using Lipofectamine 2000 (Invitrogen). Renilla luciferase was used as an internal control for normalization of DNA and transfection efficiency of reporter constructs. […] Data were normalized with internal renilla luciferase control for each sample, and the changes in reporter activities with CFTR overexpression were calculated.
Background: Reporter assays use an easily measured gene product as a stand-in for the process of interest.

In experiment [6] the test system is membrane ceramide. The experiment is described as follows: ZO-1/ceramide co-immunostaining and confocal imaging of CFBE41o-WT-CFTR cells. The format is cell-based, human. To be noted: 6 hrs.
Experiment [7] has as its system NFκB. Briefly: NFκB immunostaining of CFBE41o-WT-CFTR cells after lipid-raft CFTR depletion. The format is cell-based, human. The note with it: 5 mM CD, 6 hrs, ± 10 ng/ml Pa-LPS.
Experiment [8] concerns IL-8. The experiment is described as follows: IL-8 secretion ELISA in CFBE41o-WT-CFTR cells. The format is cell-based, human. To be noted: 5 mM CD, 24 hours; p<0.001. Background: In an ELISA, binding on a coated surface is turned into a signal by an enzyme label.
The test system of experiment [9] is lipid-raft CFTR. The experiment is described as follows: Intratracheal CD treatment of Cftr+/+ mice, lung immunofluorescence staining. The format is in vivo, C57BL/6 mice. The note with it: CD 75 μg/mouse i.t. for 3 days. The procedure:
All animal experiments were carried out in accordance with the Johns Hopkins University (JHU) Animal Care and Use Committee (ACUC) approved protocols. Age-, weight-, and sex-matched (24 wk old), B6-12956-Cftr^−/− (Cftrtm^1Kthc-TgN(^FABPCFTR)) (30, 31) and Cftr^+/+ inbred mice strains (procured from Case Western Reserve University Animal Resource Center, Cleveland, Ohio; n=3-5 for all experiments). The changes in cytokine and inflammatory markers between Cftr^+/+and Cftr^−/− mice were verified by multiple (2, 3) experiments, and representative data are shown. All mice were housed in a controlled environment and pathogen-free conditions. […] Mice were sacrificed 24 h after drug treatment, and the bronchoalveolar lavage fluid (BALF) was collected for cytokine ELISAs. The lungs were fixed in 10% buffered formalin phosphate (Fisher Scientific, Pittsburgh, Pa.), paraffin embedded, and cut into longitudinal sections (5 μm thick) on glass slides for immunostaining. For depletion of membrane-CFTR in murine lungs, 72-h i.t. CD treatment was used, and lung tissues were collected as above. The mice (three to four mice per group, 8 to 10 wk old) were exposed to cigarette smoke (CS) using the TE-2 cigarette smoking machine (Teague Enterprises, Davis, Calif.). […] An average total particulate matter of 150 mg/m^3 was recorded in real time during the smoking protocols. […] The human lung tissue samples from Gold stage I (mild, forced expiratory volume [FEV1]% predicted>80%), Gold stage 11 (moderate, FEV1% predicted=˜50-80%), and Gold stage III-IV (severe/very severe, FEV1% predicted <50%) nontumor COPD (with FEV1/forced vital capacity [FVC] ratio of <70%) and Gold stage 0 (at risk) control subjects (procured from Lung Tissue Research Consortium [Bethesda, Md.], National Heart, Lung and Blood Institute, National Institutes of Health) were used for quantification and localization of indicated proteins by immunostaining All the subjects were stable, and Gold I-IV subjects had emphysema. […]

Experiment [10] relates to lipid-raft Fas and CFTR. Briefly: Immunoblotting of lung lipid-raft protein fraction from CD treated and/or sub-chronic CS exposed Cftr+/+ mice. To be noted: CD i.t. 2×50 μg. The format is in vivo.
[11] abbreviates: Cftr+/+ mice, Pa-LPS i.t. 12 h, then drug i.t. 24 h.
[12] abbreviates: Cftr-/- mice, Pa-LPS i.t. 12 h, then drug i.t. 24 h.

As to `CN(C)CCC=C1c2ccccc2CCc2ccccc21` [AMT, Amitriptyline], the “protection against Pa-LPS-induced lung injury” value in experiment [1] (Cftr+/+ mice, FIG. 4B legend) is listed as “relatively less protective”. Besides, in experiment [1] (setting [11]), the “Pa-LPS-induced IL-1b secretion (BALF)” value is “unable to rescue” and the “Pa-LPS-induced IL-6 (BALF)” value is recorded as “unable to rescue”. The “inflammatory cytokines (BALF)” value in experiment [1] (Cftr-/- mice, FIG. 4B legend) is “effectively controls”. Besides, in experiment [1] (setting [12]), the “Pa-LPS-induced IL-1b levels (BALF)” value is listed as “significant decrease” and the “Pa-LPS-induced IL-6 (BALF)” value is recorded as “significant decrease”.

Turning to `CCCCCCCCCC(=O)N[C@H](CN1CCOCC1)[C@H](O)c1ccccc1` [D-PDMP], in [2] (chronic-CS 24 weeks, 50 μg/mouse), the “CS induced inflammation and emphysema (H&E)” value is reported as “significant decrease”. In addition, the “chronic-CS induced LacCer-accumulation (lung immunostaining)” value in [2] (chronic-CS 24 weeks, 50 μg/mouse, p<0.05) is on record as “significantly downregulated”. Also, in experiment [2] (chronic-CS 24 weeks, p=0.0016), the “alveolar space enlargement (alveolar diameter, morphometric analysis)” value is recorded as “significantly controlled”. The “BALF IL-6 levels” value in experiment [2] (chronic-CS exposed mice, n=3, p=0.009) is reported as “rescued to basal levels”. For the same molecule, the “chronic-CS induced macrophage (F4/80-positive cells) infiltration in BALF” value in experiment [2] (flow cytometry, p<0.01) is on record as “significantly controls”.

In the case of `N[C@@H](CCC(=O)N[C@@H](CS)C(=O)NCC(=O)O)C(=O)O` [Glutathione], the “inhibition of neutral SMase” value in [3] is “greater than 95%”.

For Fumonisin B1 [FB1], the “Pa-LPS-induced IL-10 (BALF)” value in [1] (Cftr+/+ mice, FIG. 4A) is listed as “significantly decreases”. Moreover, in [1] (setting [11]), the “Pa-LPS-induced IL-1b secretion (BALF)” value is reported as “very significant decrease” and the “Pa-LPS-induced IL-6 (BALF)” value was “significantly decreases”. For the same molecule, in experiment [1] (Cftr+/+ mice, Pa-LPS i.t. 12 h, then drug i.t. 24 h, p<0.05), the “reduction in the Pa-LPS-induced IL-6 levels (BALF)” value worked out at 2 fold. Further, in experiment [1] (setting [12]), the “Pa-LPS-induced IL-1b levels (BALF)” value is on record as “unaltered” and the “Pa-LPS-induced IL-6 (BALF)” value is “decreased; also recorded: modest effect”. Also, the “lipid-raft ZO-2 expression” value in experiment [4] (CFBE41o- cells (no functional CFTR), Pa-LPS 10 ng/ml or FB1 50 μM, 24 h) is reported as “neither Pa-LPS nor FB1 is able to modulate”. In addition, in experiment [4] (in the presence of WT-CFTR (CFBE41o-WT-CFTR cells)), the “lipid-raft ZO-2 expression” value is reported as “downregulated”. In experiment [5], the “TNFα mediated NFκB promoter activity” value is given as “inhibits”.

Turning to TNFα, the “CD induced membrane ceramide accumulation” value in experiment [6] (TNFα 10 ng/ml with CD 5 mM) is reported as “depletes”.

With methyl-β-cyclodextrin [CD], the “CFTR control of NFκB signaling” value in [7] was “abrogates its control of NFκB signaling”. Further, the IL-8 chemokine levels entry in experiment [8] is “significantly induces”. In [9], the “NFκB activity (lung immunofluorescence)” value is “induces”, the “expression of lipid-raft marker (ZO-2)” value was “significant increase” and the “neutrophil chemotaxis (NIMPR14)” value was “induces”. In addition, the “ceramide accumulation on the cell surface and lipid rafts” value in experiment [6] (CD 5 mM) is reported as “increases”. For the same molecule, in experiment [10], the “lipid-raft CFTR levels” value is “decrease” and the “lipid-raft Fas expression” value is given as “increases”.

(Values after patent publication US20130131146A1, “Compositions and Methods for Treating Pulmonary Conditions” (THE JOHNS HOPKINS UNIVERSITY, priority 2010, published 2013).)
